One data set concerns muscarinic receptor. The settings on record: cited from earlier work.
Data set [1] relates to C. elegans. The data set can be described thus: GFP-LGG-1-II autophagic flux in worms, Western blot. The data set is classed as in vivo. The settings on record: 80 μM; BafiA1 or DMSO for 6 h. The source says:
Autophagy modulation by ANAVEX2-73 in vitro and its impact on some key autophagy network factors prompted the inventors to further analyze the impact of Sig-1 R activation by ANAVEX2-73 on autophagy and proteostasis also in vivo, employing the C. elegans model. The nematode ortholog of the human Sig-1 R is W08F4.3 and is expressed in several tissues, including the muscular system. To monitor autophagic flux in vivo the inventors employed a GFP-LGG-1 reporter worm strain. LGG-1 is a nematode ortholog of the mammalian GABARAP, and the GFP-tagged protein can be used to evaluate autophagic activity by Western blotting as well as confocal fluorescence microscopy. Employing Western blotting, the levels of GFP-LGG-1-II plus BafiA1 and without BafiA1 were analyzed, analogously to the flux measurements in HeLa cells as shown in FIG. 37.
C. elegans strains, maintenance, methods. C. elegans were maintained according to standard procedures on nematode growth medium (NGM) plates seeded with HB101 E. coli. […]
For analysis of autophagic activity, synchronous nematodes expressing GFP::LGG-1 were cultivated at 20° C. […] Thereafter worms were lysed for Western blotting or analyzed by confocal fluorescence microscopy.
Western blot analyses were performed as described previously. […] Proteins were detected by chemiluminescence using the Fuji LAS-3000 dark box (Fujifilm, Dusseldorf).
Background: In western blotting, separated proteins are transferred to a membrane and probed.

The test system of another data set is AD. The settings on record: Phase 2a trial of patients; cited from earlier work.
Data set [2] deals with C. elegans. Kind of data set: GFP-LGG-1 puncta in worms, confocal fluorescence microscopy. The data set is classed as in vivo. Particulars: plus/minus BafiA1; head regions of worms. The source says: To further substantiate this finding we used confocal fluorescence microscopy to directly visualize autophagosomal structures, as indicated by GFP-LGG-1-positive puncta. […] In fact, a significant increase was found; autophagic flux as observed in vivo is induced by ANAVEX2-73 by approx. 2.5-fold (FIG. 37B; The number of GFP-positive autophagosomal structures (indicated by arrowheads) were counted in three independent experiments and in each experiment in at least 8-11 respective head regions of worms), which is consistent with the Western blot analysis (FIG. 37A).
C. elegans strains, maintenance, methods. C. elegans were maintained according to standard procedures on nematode growth medium (NGM) plates seeded with HB101 E. coli. The following strains were employed in this study: GFP::LGG-1 (ex[PIggI::IggI::GFP]/pRF4; maintained at 20° C.; and the strain CL2006 (dvls2 [pCL12(unc-54/human A13 peptide 1-42)+pRF4]), maintained at 15° C.
For analysis of autophagic activity, synchronous nematodes expressing GFP::LGG-1 were cultivated at 20° C. At first day of adulthood, worms were transferred to 80 μM ANAVEX2-73 or control M9 liquid culture medium for 2 h and subsequently were treated with Bafilomycin AI or DMSO (control) for 4-6 h. Thereafter worms were lysed for Western blotting or analyzed by confocal fluorescence microscopy.

Data set [3] has as its system human A[342-expressing worms. Kind of data set: Abeta42-induced paralysis of worms. The class given is in vivo, C. elegans. The settings on record: up to 12 days, quantified daily, vs M9 buffer. The source says: This encouraged the inventors to further look into the functional consequences of autophagy induction, focusing on the impact of the degradative pathway on proteostasis in vivo. Therefore, human A[342-expressing worms characterized by a time-dependent paralysis were employed, due to the accumulation of A[342 oligomers and high molecular weight aggregates in body wall muscle cells; it is stressed here that A[342-expressing worms are not considered as a model for AD, but rather as an experimental model for general proteostasis stress and proteotoxicity, where protein aggregation in muscle cells leads do a clear-cut phenotype (here, paralysis). A1342 protein aggregates were stained in situ with thioflavine. […] The accumulation of A[342 aggregates in the muscle cells is known to lead to an enhanced paralysis of the worms over time. […] C. elegans were treated with the compound (or M9 buffer as control) up to 12 days and paralysis was quantified daily. […]
For analysis of paralysis rate, synchronous CL2006 nematodes were cultivated at 15° C. on plates seeded with HB101 E. coli re-suspended in M9 (control) or 100 μM and 50 μM ANAVEX2-73. […] Worms were mounted on 2% agar pads on a glass slide and confocal fluorescence microscopical analyses were performed with the LSM 710 (Zeiss, Oberkochen) laser scanning microscope.

For the next data set, the system named is ULK1. Kind of data set: ULK1 serine 555 phosphorylation, Western blot. The data set is classed as cell-based, human. Particulars: 1 μM; HeLa cells. The source says:
Activation of the serine/threonine protein kinase ULK1 (unc-51-like kinase 1) via phosphorylation at serine 555 indicates stimulation of the canonical autophagy pathway. […] It has to be mentioned that this activating ULK1 phosphorylation can be inhibited by mTOR as well as stimulated via AMPK kinase. Both are basal physiological sensors of nutritional conditions and key signal transducers of canonical autophagy stimulation. ULK1 is in fact the signal mediating the induction of the formation of the phagophore during the autophagy process and, therefore, a central promoter of autophagy. ULK1 itself functions in a complex with at least three protein partners: FI P200 (focal adhesion kinase family interacting protein of 200 kDa), ATG (autophagy-related protein) 13 (ATG13), and ATG101.
Cell culture and microscopy. HeLa and HEK293A cells were cultured in DMEM (Invitrogen, Carlsbad, CA, USA, 41965062) supplemented with active FBS (Life Technologies GmbH, Carlsbad, CA, USA, 10270106), 1×ABAM (Invitrogen, 15240-062) and 1 mM sodium pyruvate (Invitrogen, 1136-088). […] Proteins were detected by chemiluminescence using the Amersham Imager 600 (GE). Confocal fluorescence microscopical analyses of HEK293A cells stably expressing GFP-LC3B were performed with the laser scanning microscope LSM 710 (Zeiss, Oberkochen).

Each structure is given as a SMILES string.

On to `CN(C)CC1CCOC1(c1ccccc1)c1ccccc1.Cl` (centres unmarked) [ANAVEX2-73, tetrahydro-N,N-dimethyl-2,2-diphenyl-3-furanmethanamine hydrochloride], for which, in the data set on muscarinic receptor, the “affinity for muscarinic receptor” value was “low micromolar range”. For the same molecule, the “enhancement of autophagic flux (GFP-LGG-1-II, Western blot)” value in the data set on C. elegans [1] was ~2 fold. Also, the “improvement against exploratory endpoints” value with AD is “concentration-dependent improvement against exploratory endpoints”. The safety profile entry in the data set on AD was “favorable safety profile”. Also, the “induction of autophagic flux (GFP-LGG-1 puncta)” value in the data set on C. elegans [2] is recorded as “approx. 2.5 fold”. Also, the paralysis entry in data set [3] (50 NM) and in data set [3] (100 NM) was “clear reduction in paralysis” throughout. The “ULK1 serine 555 phosphorylation” value in the data set on ULK1 was “up to 2 fold”.

The values are drawn from patent publication US12180174B2, “A2-73 crystalline polymorph compositions of matter and methods of use thereof” (ANAVEX LIFE SCIENCES CORP., priority 2018, dated 2024).
